In patent publication US20240304840A1 (priority 2023, published 2024):

Settings: 1 mAh H-cell, 1 M sodium chloride, Selemion AMVN, about 20 days
Text: An H-cell can be used for the coulombic efficiency tests. […] The electrolyte can be dissolved in about 1 M sodium chloride for electrochemical stability testing. The moles of anolyte and catholyte molecules present can be controlled to achieve the desired capacity of 1 mAh. […] Selemion™ anion exchange membrane (AMVN) can be used for the H-cells.

With `C[N+](C)(C)CCC[N+](C)(C)CCCN1C(=O)c2ccc3c4ccc5c6c(ccc(c7ccc(c2c37)C1=O)c64)C(=O)N(CCC[N+](C)(C)CCC[N+](C)(C)C)C5=O` [PDI-tetraammonium-Cl4] the “crossover in H-cell” value was “almost no crossover”.
